Assay results reported in patent publication US7091207B2, “Method of treating myocardial infarction with PDE-5 inhibitors” (Virginia Commonwealth University, priority 2002, dated 2006).
Marks after values point to notes of the source that are not given here.

Experiment: Systemic hemodynamics (blood pressure, heart rate, rate pressure product) in rabbits
Assay type: in vivo, rabbit
[1] = oral 1.4 mg/kg, after 30 minutes
[2] = oral sildenafil citrate 1.4 mg/kg, Acute, 30-min Ischemia
[3] = oral sildenafil citrate 1.4 mg/kg, Acute, 60-min Reperfusion
[4] = oral sildenafil citrate 1.4 mg/kg, Acute, 80-min Reperfusion
[5] = oral sildenafil citrate 1.4 mg/kg, Acute, 120-min Reperfusion
[6] = oral sildenafil citrate 1.4 mg/kg, Acute, Baseline
[7] = oral sildenafil citrate 1.4 mg/kg, Acute, Preischemia
[8] = oral sildenafil citrate 1.4 mg/kg, Delayed, 30-min Ischemia
[9] = oral sildenafil citrate 1.4 mg/kg, Delayed, 60-min Reperfusion
[10] = oral sildenafil citrate 1.4 mg/kg, Delayed, 80-min Reperfusion
[11] = oral sildenafil citrate 1.4 mg/kg, Delayed, 120-min Reperfusion
[12] = oral sildenafil citrate 1.4 mg/kg, Delayed, Baseline
[13] = oral sildenafil citrate 1.4 mg/kg, Delayed, Preischemia
[14] = sildenafil 0.7 mg/kg IV, acute phase, 30-min Ischemia
[15] = sildenafil 0.7 mg/kg IV, acute phase, Baseline
[16] = sildenafil 0.7 mg/kg IV, acute phase, Preischemia
[17] = sildenafil 0.7 mg/kg IV, acute phase, Reperfusion (60 min)
[18] = sildenafil 0.7 mg/kg IV, acute phase, Reperfusion (120 min)
[19] = sildenafil 0.7 mg/kg IV, acute phase, Reperfusion (180 min)
[20] = sildenafil 0.7 mg/kg IV, delayed phase, 30-min Ischemia
[21] = sildenafil 0.7 mg/kg IV, delayed phase, Baseline
[22] = sildenafil 0.7 mg/kg IV, delayed phase, Preischemia
[23] = sildenafil 0.7 mg/kg IV, delayed phase, Reperfusion (60 min)
[24] = sildenafil 0.7 mg/kg IV, delayed phase, Reperfusion (120 min)
[25] = sildenafil 0.7 mg/kg IV, delayed phase, Reperfusion (180 min)
[26] = sildenafil citrate 0.7 mg/kg intravenous, within 2 minutes

Which results are given for `CCCc1nn(C)c2c(=O)[nH]c(-c3cc(S(=O)(=O)N4CCN(C)CC4)ccc3OCC)nc12` [sildenafil]?
changes in heart rate (0.7 mg/kg intravenous): No significant changes in heart rate; time until systemic hemodynamics returned to nearly baseline levels (0.7 mg/kg intravenous): ≤ 5 min; changes in heart rate (oral 1.4 mg/kg): No changes in heart rate; decrease in diastolic pressure [1]: ~12.5%; decrease in mean arterial pressure [1]: ~10.3%; decrease in systolic pressure [1]: approximately 9.2%; hypotensive response (oral 1.4 mg/kg, at 60 minutes): remained significant; HR [2]: 216 ± 18 beats/min; MAP [2]: 96 ± 6 mmHg; RPP (systolic arterial pressure x HR) [2]: 23137 ± 1617; HR [3]: 205 ± 14 beats/min; MAP [3]: 89 ± 0.4 mmHg; RPP (systolic arterial pressure x HR) [3]: 21647 ± 2274; HR [4]: 187 ± 9 beats/min; MAP [4]: 81 ± 5c mmHg; RPP (systolic arterial pressure x HR) [4]: 18555 ± 1336; HR [5]: 187 ± 9 beats/min; MAP [5]: 82 ± 5c mmHg; RPP (systolic arterial pressure x HR) [5]: 17738 ± 860c; HR [6]: 216 ± 5 beats/min; MAP [6]: 100 ± 2a mmHg; RPP (systolic arterial pressure x HR) [6]: 24859 ± 239; HR [7]: 210 ± 20 beats/min; MAP [7]: 95 ± 3 mmHg; RPP (systolic arterial pressure x HR) [7]: 22848 ± 2027; HR [8]: 190 ± 18 beats/min; MAP [8]: 104 ± 5 mmHg; RPP (systolic arterial pressure x HR) [8]: 22089 ± 2288; HR [9]: 185 ± 14 beats/min; MAP [9]: 103 ± 8 mmHg; RPP (systolic arterial pressure x HR) [9]: 20955 ± 1469; HR [10]: 173 ± 16 beats/min; MAP [10]: 94 ± 8 mmHg; RPP (systolic arterial pressure x HR) [10]: 18838 ± 1913; HR [11]: 171 ± 15 beats/min; MAP [11]: 94 ± 8 mmHg; RPP (systolic arterial pressure x HR) [11]: 17692 ± 978; HR [12]: 187 ± 15 beats/min; MAP [12]: 109 ± 3 mmHg; RPP (systolic arterial pressure x HR) [12]: 22626 ± 2173; HR [13]: 193 ± 7 beats/min; MAP [13]: 99 ± 3 mmHg; RPP (systolic arterial pressure x HR) [13]: 21938 ± 989; HR [14]: 208 ± 11 beats/min; MAP [14]: 76 ± 7 mmHg; RPP (systolic arterial pressure × HR) [14]: 17,728 ± 1441; HR [15]: 247 ± 20 beats/min; MAP [15]: 77 ± 4^f mmHg; RPP (systolic arterial pressure × HR) [15]: 21,988 ± 2129; HR [16]: 204 ± 8 beats/min; MAP [16]: 81 ± 6^f mmHg; RPP (systolic arterial pressure × HR) [16]: 18,132 ± 999; HR [17]: 201 ± 14 beats/min; MAP [17]: 76 ± 5^f mmHg; RPP (systolic arterial pressure × HR) [17]: 16748 ± 1425; HR [18]: 177 ± 11^a beats/min; MAP [18]: 74 ± 5^f mmHg; RPP (systolic arterial pressure × HR) [18]: 14909 ± 1289^a; HR [19]: 158 ± 12^a beats/min; MAP [19]: 73 ± 5^f mmHg; RPP (systolic arterial pressure × HR) [19]: 12,967 ± 1115^a; HR [20]: 189 ± 8^a beats/min; MAP [20]: 73 ± 9 mmHg; RPP (systolic arterial pressure × HR) [20]: 15,395 ± 1784; HR [21]: 229 ± 14 beats/min; MAP [21]: 76 ± 5^f mmHg; RPP (systolic arterial pressure × HR) [21]: 19,692 ± 1528; HR [22]: 215 ± 8 beats/min; MAP [22]: 71 ± 5^f mmHg; RPP (systolic arterial pressure × HR) [22]: 17,764 ± 1174; HR [23]: 179 ± 8^a,b beats/min; MAP [23]: 74 ± 9^f mmHg; RPP (systolic arterial pressure × HR) [23]: 15,086 ± 1989; HR [24]: 170 ± 8^a,b beats/min; MAP [24]: 73 ± 5^f mmHg; RPP (systolic arterial pressure × HR) [24]: 13,477 ± 1285^a; HR [25]: 164 ± 11^a,b beats/min; MAP [25]: 68 ± 3^f mmHg; RPP (systolic arterial pressure × HR) [25]: 12,196 ± 1088^a; decline in diastolic pressure [26]: 47.3%; decline in mean arterial pressure [26]: 38.8%; decline in systolic pressure [26]: 24.5%
